# Data from patent US4347252A, “Rodenticidal 1-(3,5-bistrifluoromethylphenyl)-3-(4-t-butylpiperidino)prop-1-yne” (priority 1980, dated 1982).
# How the values were obtained:
# Format in all cases: in vivo
# [1] = system: Warfarin-resistant rats (Rattus norvegicus); assay: Field Tests on Rats on three farms
# Description: Field Tests on Rats (Rattus norvegicus)
# Field tests were carried out on warfarin-resistant rats on three farms. Baits were prepared from either medium oatmeal or soaked wheat in which was incorporated 0.1% by weight of the test compound used in Test 2 hereinbefore described. […] The amount of bait eaten per day was determined by weighing and the presence or absence of rats was deduced from the amount of bait eaten and by counting the traces of the presence of rats in patches of dust laid for this purpose.
# [2] = system: mice (Mus musculus); assay: Field Test on Mice
# Description: Field Test on Mice (Mus musculus)
# (1) A non-toxic bait was laid at 3 mouse-infested sites and the amount of bait eaten was determined by weighing. (2) The non-toxic bait was then withdrawn and replaced by a similar bait in which was incorporated 0.1% by weight of the test compound used in Test 2 hereinbefore described (poisoned bait). The amount of poisoned bait which was eaten was similarly determined by weighing over a period of three weeks. (3) The poisoned bait was then withdrawn and replaced by the non-toxic bait and the amount of non-toxic bait which was eaten was also similarly determined by weighing. The results obtained are given in following Table 6, the degree of control being calculated by a comparison of the amounts of non-toxic bait which were eaten during the periods before and after use of the poisoned bait.
# [3] = system: Warfarin-resistant rats (Rattus norvegicus); assay: Laboratory Feeding Tests on Wild Rodents: rats; details: 0.1% by weight in bait
# Text: (§1) Laboratory Feeding Tests on Wild Rodents
# (§2) Warfarin-resistant rats (Rattus norvegicus) and mice (Mus musculus) from wild populations were fed, in the laboratory, on a bait consisting of coarse oatmeal (90%), wholemeal flour (5%) and corn oil (5%). After feeding for four days on this bait, it was replaced by a treated bait of the same composition, in which 0.1% by weight of the test compound 1-(3,5-bistrifluoromethylphenyl)-3-(4-tert-butylpiperidino)prop-1-yne hydrochloride had been incorporated.
# [4] = system: mice (Mus musculus); assay: Laboratory Feeding Tests on Mice in Pens, Test 3(a), poisoned bait alone; details: 0.1% by weight in bait
# Description: (§3) Laboratory Feeding Tests on Mice in Pens
# (§4) A bait comprising oatmeal, wholemeal flour and corn oil (plain bait) and a bait of similar composition but incorporating 0.1% by weight of the test compound used in Test 2 hereinbefore described (poisoned bait) were prepared and used in the following tests on mice (Mus musculus) housed in pens.
# The poisoned bait alone was offered to 4 male and 4 female mice.
# [5] = system: Warfarin-resistant mice (Mus musculus); assay: Laboratory Feeding Tests on Wild Rodents: mice; details: 0.1% by weight in bait
# Text: as §1, §2
# [6] = system: mice (Mus musculus); assay: Laboratory Feeding Tests on Mice in Pens, Test 3(b), choice of poisoned and plain bait
# Description: as §3, §4
# A choice of poisoned and plain bait was offered to groups of mice.
compound,measurement,setting,value
"CC(C)(C)C1CCN(CC#Cc2cc(C(F)(F)F)cc(C(F)(F)F)c2)CC1.Cl [1-(3,5-bistrifluoromethylphenyl)-3-(4-tert-butylpiperidino)prop-1-yne hydrochloride]",Total number of dead rats observed during test,[1]; Farm 1,44
same,Amount of bait eaten,"[1]; Farm 1, Day 1, 0.1% by weight in bait",2060 g
same,Amount of bait eaten,"[1]; Farm 1, Day 2",440 g
same,Amount of bait eaten,"[1]; Farm 1, Day 3",130 g
same,Amount of bait eaten,"[1]; Farm 1, Day 4",60 g
same,Amount of bait eaten,"[1]; Farm 1, Day 6",245 g
same,Amount of bait eaten,"[1]; Farm 1, Day 7",130 g
same,Amount of bait eaten,"[1]; Farm 1, Day 8",85 g
same,Amount of bait eaten,"[1]; Farm 1, Day 9",30 g
same,Amount of bait eaten,"[1]; Farm 1, Day 10",10 g
same,Amount of bait eaten,"[1]; Farm 1, Day 11",40 g
same,Amount of bait eaten,"[1]; Farm 1, Day 14",65 g
same,Total number of dead rats observed during test,[1]; Farm 2,8
same,Amount of bait eaten,"[1]; Farm 2, Day 1, 0.1% by weight in bait",1455 g
same,Amount of bait eaten,"[1]; Farm 2, Day 2",1100 g
same,Amount of bait eaten,"[1]; Farm 2, Day 3",730 g
same,Amount of bait eaten,"[1]; Farm 2, Day 4",210 g
same,Amount of bait eaten,"[1]; Farm 2, Day 7",405 g
same,Amount of bait eaten,"[1]; Farm 2, Day 8",135 g
same,Amount of bait eaten,"[1]; Farm 2, Day 9",40 g
same,Amount of bait eaten,"[1]; Farm 2, Day 10",30 g
same,Amount of bait eaten,"[1]; Farm 2, Day 11",10 g
same,Amount of bait eaten,"[1]; Farm 2, Day 14",95 g
same,Amount of bait eaten,"[1]; Farm 2, Day 15",45 g
same,Amount of bait eaten,"[1]; Farm 2, Day 16",0 g
same,Total number of dead rats observed during test,[1]; Farm 3,113
same,Amount of bait eaten,"[1]; Farm 3, Day 1, 0.1% by weight in bait",4800 g
same,Amount of bait eaten,"[1]; Farm 3, Day 2",2680 g
same,Amount of bait eaten,"[1]; Farm 3, Day 3",360 g
same,Amount of bait eaten,"[1]; Farm 3, Day 4",445 g
same,Amount of bait eaten,"[1]; Farm 3, Day 7",565 g
same,Amount of bait eaten,"[1]; Farm 3, Day 8",205 g
same,Amount of bait eaten,"[1]; Farm 3, Day 9",185 g
same,Amount of bait eaten,"[1]; Farm 3, Day 10",65 g
same,Amount of bait eaten,"[1]; Farm 3, Day 11",15 g
same,rats initially present on the farms killed (estimated),[1]; by the fourth day of the tests,about 80%
same,percentage kill compared with anticoagulant rodenticides,"[1]; by the fourth day, vs usual kill with anticoagulant rodenticides used similarly",significantly higher percentage kill
same,Estimated Control,[2]; Site 1,98.8%
same,Amount of non-toxic bait eaten per week in period following use of poisoned bait,[2]; Site 1 (912 g per week before),11 g
same,Amount of poisoned bait eaten,"[2]; Site 1, Week 1, 0.1% by weight in bait",368 g
same,Amount of poisoned bait eaten,"[2]; Site 1, Week 2",1 g
same,Estimated Control,[2]; Site 2,98.9%
same,Amount of non-toxic bait eaten per week in period following use of poisoned bait,[2]; Site 2 (897 g per week before),10 g
same,Amount of poisoned bait eaten,"[2]; Site 2, Week 1, 0.1% by weight in bait",441 g
same,Amount of poisoned bait eaten,"[2]; Site 2, Week 2",0 g
same,Estimated Control,[2]; Site 3,100%
same,Amount of non-toxic bait eaten per week in period following use of poisoned bait,[2]; Site 3 (1880 g per week before),0 g
same,Amount of poisoned bait eaten,"[2]; Site 3, Week 1, 0.1% by weight in bait",929 g
same,Amount of poisoned bait eaten,"[2]; Site 3, Week 2",115 g
same,Amount of poisoned bait eaten,"[2]; Site 3, Week 3",11 g
same,"Days to Death, Mean",[3]; female rats,5.8 days
same,Mortality,[3]; female rats,5/5
same,"Days to Death, Mean",[3]; male rats,7.2 days
same,Mortality,[3]; male rats,5/5
same,"Days to Death, Mean",[4],5.5 days
same,Mortality,[4],100%
same,Quantity of poisoned bait eaten,"[4]; Day 1, 4 male and 4 female mice",19.1 g
same,Quantity of poisoned bait eaten,[4]; Day 2,18.8 g
same,Quantity of poisoned bait eaten,[4]; Day 3,15.4 g
same,Quantity of poisoned bait eaten,[4]; Days 4-7,13.7 g
same,"Days to Death, Mean",[5]; female mice,5.8 days
same,Mortality,[5]; female mice,5/5
same,"Days to Death, Mean",[5]; male mice,6.2 days
same,Mortality,[5]; male mice,5/5
same,Mortality,[6]; 15 mice in pen,93.7%
same,Quantity of poisoned bait eaten,"[6]; 15 mice in pen, Days 1 to 7",43.0 g
same,Quantity of poisoned bait eaten,"[6]; 15 mice in pen, Days 8 to 14",1.2 g
same,Quantity of poisoned bait eaten,"[6]; 15 mice in pen, Days 15 to 21",0.3 g
same,Mortality,[6]; 16 mice in pen (first line),93.8%
same,Quantity of poisoned bait eaten,"[6]; 16 mice in pen (first line), Days 1 to 7",55.0 g
same,Quantity of poisoned bait eaten,"[6]; 16 mice in pen (first line), Days 8 to 14",0.5 g
same,Quantity of poisoned bait eaten,"[6]; 16 mice in pen (first line), Days 15 to 21",0.0 g
same,Mortality,[6]; 16 mice in pen (fourth line),93.8%
same,Quantity of poisoned bait eaten,"[6]; 16 mice in pen (fourth line), Days 1 to 7",25.7 g
same,Quantity of poisoned bait eaten,"[6]; 16 mice in pen (fourth line), Days 8 to 14",2.0 g
same,Quantity of poisoned bait eaten,"[6]; 16 mice in pen (fourth line), Days 15 to 21",0.3 g
same,Mortality,[6]; 24 mice in pen,91.7%
same,Quantity of poisoned bait eaten,"[6]; 24 mice in pen, Days 1 to 7",42.3 g
same,Quantity of poisoned bait eaten,"[6]; 24 mice in pen, Days 8 to 14",3.5 g
same,Quantity of poisoned bait eaten,"[6]; 24 mice in pen, Days 15 to 21",0.7 g
